In patent US20040024043A1, “Method for treating cognitive disorders” (priority 2002, published 2004):
Entries after “also recorded” stand apart in the source; their conditions may differ.

Assays:
[1] = Randomized, double-blind, placebo-controlled 12-week efficacy study (NPI, CGIC, ADAS-cog, MMSE, CANTAB, ADCS-ADL); type: in vivo, patients; settings: 50 mg BID 2 weeks then 100 mg BID 10 weeks
From the text: A randomized, double-blind, placebo-controlled study is done to measure the efficacy of the (+) phenserine tartrate or formation as in Example 6 in given daily over twelve (12) weeks, in 60 patients diagnosed as having symptoms similar to those caused by Alzheimer's disease (PAD). In this study there was a total of 60 eligible patients with PAD whose primary language is English, and the patients constituted male and female patients between the ages of 50 and 85 years.
Forty patients will receive two weeks of PT and a 50 mg BID dose level, at which time their dose will be escalated to 100 mg BID, where it will remain for the final ten (10) weeks. Concurrently, twenty patients assigned to placebo medication receive matched placebo capsules for the entire 12 week duration of the study. A sufficient number of potential patients are screened to ensure enrollment of 60 eligible cases.
All study participants were evaluated prior to the study (First Level) and periodically throughout using the following standard efficacy tests;
NPI (Neuropsychiatric Inventory,
CGIC (Clinician's Global Impression of Change)
ADAS-cog (Alzheimer's Disease Assessment Scale—cognitive subscale)
MMSE (Mini-Mental State Exam)
CANTAB (Cambridge Neuropsychological Test Automated Battery—
ADCS-ADL (Activities of Daily Living)

[2] = tested on: βAPP levels in SK-N-SH cells; assay: βAPP levels by Western blot in neuroblastoma cells; type: cell-based; settings: 0.5 μM to 50 μM, various time intervals up to 16 hours
Protocol: (§1) The (+) enantiomer of formula I prepared in Example 2 was tested against its phenserine with respect to controlling β-APP levels in and the resulting toxic amyloid protein (Aβ protein) derived from the β-APP-protein by the procedure disclosed in the Shaw et al. Proc. Nat. Acad. Sci. USA (2001), 98 (13), 7605-7610. Pages […] except that the test given below included (+) enantiomer of phenserine as well as phenserine itself so that phenserine and its (+) enantiomer were tested side by side for their effect in reducing the β-APP and Aβ-proteins. The methodology of Shaw et al for carrying out these tests is summarized as follows:
(§2) Drug treatment: SK-N-SH neuroblastoma cells were cultured on 60 mm dishes at a concentration of 3×10^6 cells, and SH-SY-5Y neuroblastoma cells were plated in 100 mm dishes at a concentration of 3×10^5 cells. The cells were allowed to grow in complete media (10% FBS, 2 mM glutamine in DMEM) for 3 to 4 days until they reached 70% confluence. To start the experiment, spent media were removed and replaced with fresh media (DMEM+0.5% FBS) containing 0, 5 or 50 μM of either (−)- or (+)-phenserine, and cells were incubated at 37 C, 5% CO2 for the specific times indicated.
Lysate preparation: At each time point, the spent medium was collected and stored at −70 C for later analysis of secretory βAPP levels. Cell lysates were prepared as reported previously (Lahiri et al., 1997 and 1998). Protein levels of the supernatant were analyzed by the Bradford protein assay (BioRad, Mellville, N.Y.).
Western Blot: Fifteen μg of protein from each sample was laded onto a 10% NuPAGE Bis-Tris gel in 1× NuPAGE MOPS SDS running buffer (NOVEX, San Diego, Calif.) and the proteins separated at 200 V for 45 min. The gels then were transferred onto nitrocellulose at 25 V for 1.5 h. […] Equivalent loading of samples was determined by Ponceau S staining (Sigma, St. Louis, Mo.). Densimetric quantification of the chemiluminesence of blots was undertaken by using a […] and NIH-IMAGE (version 4.1).

acetylcholinesterase [3] = target: T1, acetylcholinesterase (Homo sapiens, UniProt P22303); settings: compared with negative enantiomer phenserine; Pei, Greig et al. 1995; cited from earlier work
Target sequence in this assay (P22303 32-614): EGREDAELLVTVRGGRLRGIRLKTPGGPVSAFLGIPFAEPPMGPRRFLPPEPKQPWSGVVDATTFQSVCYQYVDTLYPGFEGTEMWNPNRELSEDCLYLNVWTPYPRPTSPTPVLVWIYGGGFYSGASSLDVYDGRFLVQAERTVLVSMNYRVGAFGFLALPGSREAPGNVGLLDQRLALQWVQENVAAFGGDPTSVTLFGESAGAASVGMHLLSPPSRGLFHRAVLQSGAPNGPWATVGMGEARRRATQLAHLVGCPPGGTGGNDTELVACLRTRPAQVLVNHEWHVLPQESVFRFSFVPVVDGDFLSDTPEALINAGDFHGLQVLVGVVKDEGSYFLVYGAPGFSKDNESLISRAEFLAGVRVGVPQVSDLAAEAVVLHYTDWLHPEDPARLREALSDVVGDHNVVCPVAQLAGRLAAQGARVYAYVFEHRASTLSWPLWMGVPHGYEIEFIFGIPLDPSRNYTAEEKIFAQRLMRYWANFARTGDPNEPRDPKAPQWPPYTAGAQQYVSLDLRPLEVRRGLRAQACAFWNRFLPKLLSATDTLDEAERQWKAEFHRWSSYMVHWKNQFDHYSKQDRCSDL

acetylcholinesterase [4] = target: T1, acetylcholinesterase; settings: as stated in Shaw et al., PNAS 2001; read-out: concentration of compound required to inhibit 50% acetylcholinesterase activity; cited from earlier work
Target sequence in this assay (P22303 32-614, species assumed): as the sequence (P22303 32-614) above

[5] = tested on: Aβ protein levels in SK-N-SH cells; assay: Total Aβ assay (ELISA) in neuroblastoma cell cultures; type: cell-based; settings: especially after 10 hours
Protocol: as §1, §2
Total Aβ Assay: Total Aβ peptide levels in SH-SY-5Y and SK-N-SH cultured samples were assayed by a sensitive ELISA (Suzuki et al., 1994). For total Aβ measurements, the a sandwich immunoassay with rabbit polyclonal antibody to residues 1-40 residues of Aβ as a capture antibody for all species of Aβ peptide Aβ1-40 and Aβ1-42 and the monoclonal antibody to 17-25 residues of Aβ was used to detect Aβ peptide levels, and the values were expressed as the mean of six independent assays.

[6] = In vivo studies: cholinergic side effects after i.p. administration; settings: rodents
Protocol: This is a classical central (i.e., brain) cholinergic over-stimulation (overdrive) effect. Such a tremor persisted for approximately 1 hour.

Structure (SMILES)	level in the efficacy tests at end of twelve weeks versus First Level prior to treatment ([1]; patients with symptoms similar to Alzheimer's disease, oral capsules)	patients with an improvement over First Level at end of twelve-week period ([1]; treated group)	βAPP levels compared to control ([2]; FIGS. 1 and 3)	βAPP levels compared to control ([2]; FIGS. 1 and 3, listed as positive isomer of phenserine)	activity as an inhibitor of human acetylcholinesterase (acetylcholinesterase [3])	IC50 (acetylcholinesterase [4])	levels of Aβ protein compared to control ([5]; FIGS. 2 and 3)	levels of Aβ protein compared to control ([5]; FIGS. 2 and 3, listed as positive isomer of phenserine)	symptoms observed ([6]; 20 mg/kg)	persistence of tremor ([6]; 5 mg/kg)	symptoms observed ([6]; 5 mg/kg (1 ml/kg in isotonic saline))	symptoms observed ([6]; 7.5 mg/kg)	animals killed when moribund, of 5 treated animals ([6]; 20 mg/kg)
CN1CC[C@]2(C)c3cc(OC(=O)Nc4ccccc4)ccc3N(C)[C@H]12.O=C(O)C(O)C(O)C(=O)O (single isomer, unassigned) [(+) phenserine tartrate, tartaric acid salt of the +enantiomer of N-phenyl carbanoyl eseroline]	maintain a level at least as great as the First Level	about 30%	–	–	–	–	–	–	–	–	–	–	–
CN1CC[C@]2(C)c3cc(OC(=O)Nc4ccccc4)ccc3N(C)C12 (single isomer, unassigned; (+)) [(+)-phenserine, (+) 9-N-phenylcarbinol esroline]	–	–	effective in reducing	reduces the production	far less active	> 25 µM	effective in reducing	reduces the production	entirely without symptoms	–	–	–	–
CN1CC[C@@]2(C)c3cc(OC(=O)Nc4ccccc4)ccc3N(C)C12 (single isomer, unassigned; (-)) [(−)-phenserine, (−) N-(−)-N phenyl canbamoyleseroline]	–	–	reduces secreted and cellular βAPP levels in a concentration dependent manner; also recorded: decreased the βAPP levels	–	–	–	reduced Aβ protein levels; also recorded: substantially reduced	–	incapacitated by severe tremor and peripheral side effects	approximately 1 hour	fine tremor	Tremor, together with symptoms of peripheral over-stimulation (specifically, lacrimation and salivation)	2
